ChEMBL document CHEMBL5131564, “Discovery of Potent and Selective Receptor-Interacting Serine/Threonine Protein Kinase 2 (RIPK2) Inhibitors for the Treatment of Inflammatory Bowel Diseases (IBDs)” (J Med Chem, 2022)
The source made the active and inactive calls. The calls are words filed in the database; no cut-off is given here.

What was measured:
[1] = target: Receptor-type tyrosine-protein kinase FLT3 (Homo sapiens) (UniProt P36888); assay: Inhibition of human Flt3 using EAIYAAPFAKKK peptide substrate assessed as active kinase incubated for 40 mins in presence of [gamma33P]ATP at 1000 nM by scintillation counting based radiometry assay relative to control; parameters: scale not given: the % may be the effect or the level left
Receptor-type tyrosine-protein kinase FLT3 (Homo sapiens), sequence (P36888 whole entry): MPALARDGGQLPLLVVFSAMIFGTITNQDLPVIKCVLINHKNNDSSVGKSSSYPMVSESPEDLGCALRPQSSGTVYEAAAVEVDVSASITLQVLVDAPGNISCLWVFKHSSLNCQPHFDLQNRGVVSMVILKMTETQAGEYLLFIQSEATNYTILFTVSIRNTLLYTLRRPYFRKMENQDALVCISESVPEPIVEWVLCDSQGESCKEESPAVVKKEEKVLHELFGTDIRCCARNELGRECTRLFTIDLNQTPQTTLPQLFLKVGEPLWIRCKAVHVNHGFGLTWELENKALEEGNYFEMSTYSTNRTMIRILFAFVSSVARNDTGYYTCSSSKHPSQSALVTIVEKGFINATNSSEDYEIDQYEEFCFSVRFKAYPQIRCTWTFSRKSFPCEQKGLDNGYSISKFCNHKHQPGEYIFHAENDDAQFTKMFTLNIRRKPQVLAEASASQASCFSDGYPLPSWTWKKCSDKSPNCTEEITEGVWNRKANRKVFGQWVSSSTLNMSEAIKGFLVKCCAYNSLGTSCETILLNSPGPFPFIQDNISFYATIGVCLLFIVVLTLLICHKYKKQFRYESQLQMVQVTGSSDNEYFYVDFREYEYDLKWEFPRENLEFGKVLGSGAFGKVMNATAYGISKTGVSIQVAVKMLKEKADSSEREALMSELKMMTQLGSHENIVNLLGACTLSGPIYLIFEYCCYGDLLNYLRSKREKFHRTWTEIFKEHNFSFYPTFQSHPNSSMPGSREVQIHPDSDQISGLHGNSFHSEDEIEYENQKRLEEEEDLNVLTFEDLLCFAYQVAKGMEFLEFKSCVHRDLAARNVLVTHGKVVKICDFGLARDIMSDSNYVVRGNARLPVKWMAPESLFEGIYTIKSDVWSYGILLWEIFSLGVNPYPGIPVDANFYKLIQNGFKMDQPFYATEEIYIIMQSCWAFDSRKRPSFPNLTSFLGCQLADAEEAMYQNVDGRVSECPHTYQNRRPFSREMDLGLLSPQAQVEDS

[2] = Metabolic stability in human liver microsomes assessed as half life at 1 uM by LC/MS/MS analysis; assay type: ADME, Microsome
[3] = Inhibition of MDP-stimulated TNFalpha production in mouse RAW264.7 cells at 100 nM incubated for 22 hrs by ELISA relative to control; assay type: functional
[4] = target: T1, Receptor-interacting serine/threonine-protein kinase 1 (Homo sapiens) (UniProt Q13546); assay: Inhibition of human RIPK1 assessed as active kinase incubated for 120 mins in presence of [gamma33P]ATP at 1000 nM by scintillation counting based radiometry assay relative to control; parameters: scale not given: the % may be the effect or the level left
T1 sequence (whole entry): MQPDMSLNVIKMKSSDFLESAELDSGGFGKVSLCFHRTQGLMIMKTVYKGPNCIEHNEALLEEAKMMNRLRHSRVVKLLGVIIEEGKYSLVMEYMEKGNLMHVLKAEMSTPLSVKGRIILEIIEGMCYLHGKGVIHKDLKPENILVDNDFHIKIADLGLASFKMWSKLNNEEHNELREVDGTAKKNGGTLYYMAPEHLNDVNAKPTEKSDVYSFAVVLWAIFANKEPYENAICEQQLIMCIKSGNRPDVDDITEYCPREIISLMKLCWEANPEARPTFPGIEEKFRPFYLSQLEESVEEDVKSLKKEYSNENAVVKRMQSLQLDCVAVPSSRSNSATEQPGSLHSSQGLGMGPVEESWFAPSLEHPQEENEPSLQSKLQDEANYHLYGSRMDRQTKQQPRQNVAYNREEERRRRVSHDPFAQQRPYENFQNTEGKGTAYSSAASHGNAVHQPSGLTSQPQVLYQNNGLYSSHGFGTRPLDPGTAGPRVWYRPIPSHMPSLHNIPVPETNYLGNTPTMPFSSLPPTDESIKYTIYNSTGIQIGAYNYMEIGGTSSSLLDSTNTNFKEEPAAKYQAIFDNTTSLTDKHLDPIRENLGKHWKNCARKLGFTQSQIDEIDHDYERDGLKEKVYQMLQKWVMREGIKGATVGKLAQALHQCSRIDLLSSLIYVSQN

[5] = target: Receptor-interacting serine/threonine-protein kinase 2 (Homo sapiens, UniProt O43353); assay: Inhibition of human RIPK2 incubated for 120 mins in presence of [gamma33P]ATP by scintillation counting based radiometry assay
Receptor-interacting serine/threonine-protein kinase 2, sequence (O43353 whole entry): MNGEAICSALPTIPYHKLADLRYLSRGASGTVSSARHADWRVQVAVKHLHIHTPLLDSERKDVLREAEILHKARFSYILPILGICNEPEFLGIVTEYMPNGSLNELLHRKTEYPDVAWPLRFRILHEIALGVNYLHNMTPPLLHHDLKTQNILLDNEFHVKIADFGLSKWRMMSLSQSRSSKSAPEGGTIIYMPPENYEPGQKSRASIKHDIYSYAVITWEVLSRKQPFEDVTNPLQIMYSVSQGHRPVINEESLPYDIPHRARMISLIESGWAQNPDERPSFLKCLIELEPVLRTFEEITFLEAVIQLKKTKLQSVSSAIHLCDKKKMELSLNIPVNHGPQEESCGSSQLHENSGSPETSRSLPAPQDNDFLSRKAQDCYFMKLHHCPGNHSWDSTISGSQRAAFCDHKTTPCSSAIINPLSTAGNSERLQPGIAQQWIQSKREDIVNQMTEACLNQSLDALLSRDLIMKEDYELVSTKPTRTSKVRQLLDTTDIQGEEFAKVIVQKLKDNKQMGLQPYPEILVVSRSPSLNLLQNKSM

[6] = Toxicity in rat H9c2 cells assessed as inhibitory rate at 10 uM relative to control; assay type: cell-based
[7] = Inhibition of LPS/MDP-stimulated TNFalpha production in C57BL/6J mouse BMDM cells by ELISA relative to control; assay type: functional, cell-based
[8] = Toxicity in rat H9c2 cells assessed as inhibitory rate; assay type: cell-based
Mus musculus = assay: Anti-inflammatory activity against DSS-induced acute ulcerative colitis C57BL/6 mouse model assessed as recovery of weight loss at 20 mg/kg, po for 6 consecutive days; assay type: functional, organism-based

| Activity [1] | half-life at 1 µM [2] | Activity [4] | IC50 [5] | IC50 [7] | SMILES | inhibition at 0.1 µM [3] | inhibition at 10 µM [6] | IC50 [8] | Activity (Mus musculus) |
| --- | --- | --- | --- | --- | --- | --- | --- | --- | --- |
| 46% | 2.7 min | 99% | 6.7 nM | – | COc1ccc(-c2cn([C@H]3CC[C@@H](NCC#N)CC3)c3ncnc(N)c23)cc1 | 62% | – | – | – |
| – | – | 97% | – | – | CCc1ccc(-c2cn([C@H]3CC[C@@H](N)CC3)c3ncnc(N)c23)cc1 | 46% | – | – | – |
| – | 27.4 min | 114% | 2.4 nM | – | Cc1ccc(-c2cn([C@H]3CC[C@@H](N)CC3)c3ncnc(N)c23)cc1 | 99% | 28% | – | – |
| – | 69.3 min | 112% | 4 nM | – | Nc1ccc(-c2cn([C@H]3CC[C@@H](N)CC3)c3ncnc(N)c23)cc1F | 72% | 82% | – | – |
| – | > 120 min | 119% | 0.8 nM | – | Nc1ncnc2c1c(-c1ccc3c(c1)OCO3)cn2[C@H]1CC[C@@H](N)CC1 | 68% | 64% | – | – |
| – | – | 100% | – | – | Nc1ccc(-c2cn([C@H]3CC[C@@H](N)CC3)c3ncnc(N)c23)cc1 | 22% | – | – | – |
| 54% | – | 77% | 10.8 nM | – | CCC(=O)N[C@H]1CC[C@@H](n2cc(-c3ccc(OC)cc3)c3c(N)ncnc32)CC1 | 53% | – | – | – |
| – | > 120 min | 116% | 5.9 nM | – | Nc1ncnc2c1c(-c1cccc(Cl)c1)cn2[C@H]1CC[C@@H](N)CC1 | 84% | 98% | – | – |
| 47% | – | 77% | 15.6 nM | – | COc1ccc(-c2cn([C@H]3CC[C@@H](NC(=O)C(C)(C)C)CC3)c3ncnc(N)c23)cc1 | 45% | – | – | – |
| – | 28.2 min | – | – | – | Cc1ccc(-c2cn([C@H]3CC[C@@H](N)CC3)c3ncnc(N)c23)cc1Cl | – | – | – | – |
| – | > 120 min | 99% | 7.9 nM | – | Cc1ccccc1-c1cn([C@H]2CC[C@@H](N)CC2)c2ncnc(N)c12 | 88% | 54% | – | – |
| – | – | 114% | – | – | Nc1ncnc2c1c(-c1cc(F)cc(F)c1)cn2[C@H]1CC[C@@H](N)CC1 | 56% | – | – | – |
| – | – | 112% | – | – | Nc1ccccc1-c1cn([C@H]2CC[C@@H](N)CC2)c2ncnc(N)c12 | -35% | – | – | – |
| – | > 120 min | 125% | 1.6 nM | 1.7 nM | Nc1ncnc2c1c(-c1ccc(F)cc1)cn2[C@H]1CC[C@@H](N)CC1 | 72% | 35% | – | – |
| 85% | – | 87% | 3.9 nM | – | COc1ccc(-c2cn([C@H]3CC[C@@H](NC(=O)c4cc(OC)c(OC)c(OC)c4)CC3)c3ncnc(N)c23)cc1 | 49% | – | – | – |
| 70% | 1.6 min | 94% | 3 nM | – | COc1ccc(-c2cn([C@H]3CC[C@@H](NCc4ccccc4)CC3)c3ncnc(N)c23)cc1 | 76% | – | – | – |
| – | – | 117% | – | – | CC(C)Cc1ccc(-c2cn([C@H]3CC[C@@H](N)CC3)c3ncnc(N)c23)cc1 | -23% | – | – | – |
| – | – | 98% | – | – | Nc1cccc(-c2cn([C@H]3CC[C@@H](N)CC3)c3ncnc(N)c23)c1 | 16% | – | – | – |
| – | 26.9 min | – | – | – | Cc1ccc(-c2cn([C@H]3CC[C@@H](N)CC3)c3ncnc(N)c23)cc1F | – | – | – | – |

| Activity [1] | half-life at 1 µM [2] | Activity [4] | IC50 [5] | IC50 [7] | SMILES | inhibition at 0.1 µM [3] | inhibition at 10 µM [6] | IC50 [8] | Activity (Mus musculus) |
| --- | --- | --- | --- | --- | --- | --- | --- | --- | --- |
| – | 33.8 min | 95% | 33.8 nM | 57.7 nM | Cc1ccc(-c2nn(C(C)(C)CNC(=O)c3ccncc3)c3ncnc(N)c23)cc1 | 68% | 50% | 13100 nM | – |
| – | 133 min | 96% | 6.3 nM | – | Nc1ncnc2c1c(-c1ccc(O)cc1)cn2[C@H]1CC[C@@H](N)CC1 | 75% | 61% | – | – |
| – | > 120 min | – | – | 2.3 nM | Cc1ccc(-c2cn([C@H]3CC[C@@H](N)CC3)c3ncnc(N)c23)c(Cl)c1 | – | – | 11400 nM | Active |
| – | – | 101% | – | – | Nc1ncnc2c1c(-c1ccoc1)cn2[C@H]1CC[C@@H](N)CC1 | 13% | – | – | – |
| 63% | – | 82% | 16.7 nM | – | COc1ccc(-c2cn([C@H]3CC[C@@H](NC(=O)C(C)Cl)CC3)c3ncnc(N)c23)cc1 (stereo not given in full) | 51% | – | – | – |
| 58% | 6.3 min | 85% | 5.2 nM | – | C=CCN[C@H]1CC[C@@H](n2cc(-c3ccc(OC)cc3)c3c(N)ncnc32)CC1 | 76% | – | – | – |
| – | 22.4 min | – | – | – | Cc1ccc(-c2cn([C@H]3CC[C@@H](N)CC3)c3ncnc(N)c23)cc1C | – | – | – | – |
| 68% | 108 min | 97% | 4.2 nM | 3.8 nM | COc1ccc(-c2cn([C@H]3CC[C@@H](N)CC3)c3ncnc(N)c23)cc1 | 69% | – | – | – |
| 57% | – | 80% | 11.7 nM | – | COc1ccc(-c2cn([C@H]3CC[C@@H](NC(C)=O)CC3)c3ncnc(N)c23)cc1 | 27% | – | – | – |
| – | – | 99% | – | – | Nc1ncnc2c1c(-c1ccsc1)cn2[C@H]1CC[C@@H](N)CC1 | 16% | – | – | – |
| 86% | – | 105% | 18.5 nM | – | COc1ccc(-c2cn([C@H]3CC[C@@H](NCc4cccc(OC(F)(F)F)c4)CC3)c3ncnc(N)c23)cc1 | 54% | – | – | – |
| – | 148 min | 104% | 9 nM | – | Nc1ncnc2c1c(-c1ccccc1)cn2[C@H]1CC[C@@H](N)CC1 | 70% | 44% | – | – |
| – | 23.7 min | 105% | 10.7 nM | – | Cc1cccc(-c2cn([C@H]3CC[C@@H](N)CC3)c3ncnc(N)c23)c1 | 83% | 18% | – | – |
| 49% | – | 72% | 6 nM | – | CCCC(=O)N[C@H]1CC[C@@H](n2cc(-c3ccc(OC)cc3)c3c(N)ncnc32)CC1 | 31% | – | – | – |
| – | 107 min | 115% | 6.4 nM | – | Nc1ncnc2c1c(-c1cccc(F)c1)cn2[C@H]1CC[C@@H](N)CC1 | 71% | 50% | – | – |
| – | – | 93% | – | – | CC(C)(C)c1ccc(-c2cn([C@H]3CC[C@@H](N)CC3)c3ncnc(N)c23)cc1 | -40% | – | – | – |
| – | – | 98% | – | – | CCOc1ccc(-c2cn([C@H]3CC[C@@H](N)CC3)c3ncnc(N)c23)cc1 | -15% | – | – | – |
| – | – | 95% | – | – | CC(C)c1ccc(-c2cn([C@H]3CC[C@@H](N)CC3)c3ncnc(N)c23)cc1 | -52% | – | – | – |
| 55% | – | 73% | 21.1 nM | – | COc1ccc(-c2cn([C@H]3CC[C@@H](NS(=O)(=O)C(F)(F)F)CC3)c3ncnc(N)c23)cc1 | -2% | – | – | – |
